Reference: patent US5861296A, “Purified thermostable inorganic pyprophosphatase obtainable from thermococcus litoralis” (New England Biolabs, Inc., priority 1997, dated 1999)

B1: Thermococcus litoralis inorganic pyrophosphatase subunit (enzyme)
chain: MNPFHDLEPGPEVPEVVYALIEIPKGSRNKYELDKKTGLIKLDRVLYSPFHYPVDYGIIPQTWYDDDDPFDIMVIMREPTYPGVLIEARPIGLFKMIDSGDKDYKVLAVPVEDPYFNDWKDISDVPKAFLDEIAHFFQRYKELQGKEIIVEGWENAEKAKQEILRAIELYKEKFKK

Columns and labels:
[1] = target: Thermococcus litoralis inorganic pyrophosphatase (PPase), wild type, SEQ ID NO: 10 (Thermococcus litoralis, UniProt P77992); conditions: read-out: apparent Km for PPi (inorganic pyrophosphate); initial velocities at low substrate concentrations, Mg2+/PPi ratio of one; Lineweaver-Burke plot
Method: The PPase is incubated at 75° C. for 10 minutes in a 100 μl reaction containing 30 mM Tris pH 9.0, 1.5 mM MgCl2 and 1.5 mM sodium pyrophosphate. The enzyme is then cooled quickly to room temperature and complexed with 0.9 ml of Taussky-Schorr reagent (5.0 g ferrous sulfate, 10 ml 10% ammonium molybdate in 10N sulfuric acid, in a final solution volume of 100 ml.) After 10 minutes, an absorbance reading is taken at 660 nm. The absorbance reading was compared to a standard curve using Sigma's (St. Louis, Mo.) phosphorous standard (#661-9). One standard unit will liberate 1.0 μmole of inorganic orthophosphate per minute under the above conditions.

[2] = target: the molecule itself; experiment: gel filtration on Superose 12 HR 10/30 (125 kDa) against the subunit mass by SDS-PAGE and DNA sequence
Method: The molecular mass of the *T. litoralis* inorganic pyrophosphatase was estimated by gel filtration in a Superose 12 HR 10/30 (Pharmacia; Piscataway, N.J.) (10×300 mm). The column was equilibrated with 50 mM Tris-HCl pH 7.5 containing 100 mM NaCl and run at a flow rate of 0.5 ml/min. The Superose 12 HR 10/30 had been previously calibrated with different standard proteins: Catalase (232 kDa), Aldolase (158 kDa), Bovine Serum Albumin (67 KDa), Ovalbumin (43 kDa), Chymotrypsinogen (25 kDa), and Ribonuclease A (13.7 kDa) (all from Pharmacia; Piscataway, N.J.). From the plot of log (molecular mass) versus the distribution coefficient (Kav), a value of 125 kDa was calculated for the molecular mass of *T. litoralis* inorganic pyrophosphatase. Since the apparent molecular mass of the monomer was determined to be 20 to 21 kDa on an SDS-PAGE and 19,666 Da by the DNA sequence, the enzyme is probably homohexameric. The homohexameric structure of the *Thermococcus litoralis* inorganic pyrophosphatase agrees with other known cytoplasmic PPases from eubacterial and archaeal sources which tend to be tetrameric or hexameric complexes with single subunits of 19 to 23 kDa.

| Molecule | Km [1] [µM] | binding result [2] |
| --- | --- | --- |
| O=P(O)(O)OP(=O)(O)O [PPi, inorganic pyrophosphate] | 1000 | – |
| B1 | – | binds |
